{"source": "patent US20140206678A1", "about": "“INHIBITORS OF MTOR KINASE AS ANTI -VIRAL AGENT” (KADMON CORPORATION, LLC, priority 2011, published 2014)", "key": {"[1]": {"test_system": "confluent human fibroblasts", "experiment": "Trypan blue exclusion viability of confluent human fibroblasts (4-PBA)", "type": "cell-based", "conditions": "highest dose tested; eight days", "experimental": "FIG. 11. 4-PBA is not toxic to uninfected or infected confluent human fibroblasts. (A) Fibroblasts were maintained in medium containing the indicated concentrations of 4-PBA for 8 days. The medium was replaced every other day throughout the time course. At the end of the treatment period, cell viability was measured by the trypan blue exclusion assay. Date points represent the mean of duplicate wells. (B) Fibroblasts were infected with HCMV at a multiplicity of 0.1 pfu/cell. Cells were fed every other day with fresh medium containing the indicated concentration of 4-PBA. At eight days post infection, cells were washed once with media, and then media lacking drug was added. Eight days later (16 days post infection) cell free virus in the supernatant was quantitated by the TCID50 method. Date points represent the mean of duplicate wells.\nTwo experiments were performed to rule out the possibility that 4-PBA is simply toxic to the cells and inhibits HCMV indirectly by reducing cell viability (FIG. 11). In the first experiment (FIG. 11A) an assay for cell viability was performed on confluent human fibroblasts treated for eight days with different concentrations of the drug. The highest dose of the drug tested had no effect on cellular viability in the trypan blue exclusion assay. […] Then the drug was removed and the yield of virus was determined 8 days later."}, "[2]": {"test_system": "HCMV strain AD169", "experiment": "HCMV AD169 replication in human fibroblasts with 4-PBA alone or with mTOR inhibitors, TCID50", "type": "cell-based, human cytomegalovirus"}, "[3]": {"test_system": "HCMV", "experiment": "HCMV yield in MRC5 fibroblasts at 96 hours post-infection (mTOR inhibitors)", "type": "cell-based, human cytomegalovirus", "conditions": "0.5 pfu/cell, up to 5 μM"}, "[4]": {"test_system": "PI3Ks", "conditions": "cited from earlier work"}, "[5]": {"target": "mTOR (Homo sapiens, UniProt P42345)", "conditions": "read-out: IC50 (selective mTOR inhibitors); cited from earlier work"}, "[6]": {"test_system": "panel of 140 protein kinases", "conditions": "read-out: IC50 against panel of 140 protein kinases; cited from earlier work"}, "[7]": {"test_system": "MCMV", "experiment": "MCMV replication in mouse embryo fibroblasts, TCID50", "type": "cell-based, murine cytomegalovirus", "conditions": "wild-type MEFs; rapamycin 20 nM, Torin1 250 nM; 0.05 PFU/cell"}, "[8]": {"test_system": "HCMV", "experiment": "HCMV multistep growth in serum-starved human fibroblasts, cell-free virus by TCID50", "type": "cell-based, human cytomegalovirus", "conditions": "day 10; rapamycin 20 nM, Torin1 250 nM; 0.05 PFU/cell"}}, "note": "“Also recorded” adds a separate entry of the source.", "data": [{"smiles": "O=C([O-])CCCc1ccccc1.[Na+]", "note": "[4-PBA, sodium 4-phenylbutyrate]", "values": [{"measurement": "cellular viability, trypan blue exclusion assay", "setting": "[1]", "result": "no effect"}, {"measurement": "virus yield 8 days after drug removal", "setting": "[2]; all doses tested, 8-day treatment, 16 days post infection", "result": "recovered and produced a normal yield"}, {"measurement": "HCMV virus replication", "setting": "[2]; dose-dependent, day 8 post infection, 0.1 pfu/cell", "result": "effectively inhibited; also recorded: inhibited virus production"}]}, {"smiles": "Cn1c(=O)n(-c2ccc(C(C)(C)C#N)cc2)c2c3cc(-c4cnc5ccccc5c4)ccc3ncc21", "note": "[BEZ235]", "values": [{"measurement": "HCMV virus production (yield as percentage of untreated cells)", "setting": "[3]", "result": "inhibit virus production"}]}, {"smiles": "CC(C)n1nc(-c2ccc3oc(N)nc3c2)c2c(N)ncnc21", "note": "[INK128]", "values": [{"measurement": "HCMV virus production (yield as percentage of untreated cells)", "setting": "[3]", "result": "inhibit virus production"}]}, {"smiles": "COc1cc(-c2cn(-c3nc(N4CCOCC4)nc(N4CCOCC4)n3)cn2)cc(OC)c1O", "note": "[KU-BMCL-200908069-5]", "values": [{"measurement": "fold selective versus PI3Ks (PI3K)", "setting": "[4]", "result": "> 500", "unit": "fold"}]}, {"smiles": "CNC(=O)Nc1ccc(-c2nc(N3C[C@H]4CC[C@@H](C3)O4)c3cnn(C4CCC5(CC4)OCCO5)c3n2)cc1", "note": "[WYE-125132]", "values": [{"measurement": "fold selective versus PI3Ks (PI3K)", "setting": "[4]", "result": "> 5,000 fold"}, {"measurement": "IC50", "setting": "[5]", "result": 0.19, "unit": "nM"}]}, {"smiles": "O=C(Nc1ccc(-c2nc(N3CC4CCC(C3)O4)c3sccc3n2)cc1)NC1CC1", "note": "[Wyeth-BMCL-200910075-9b]", "values": [{"measurement": "fold selective versus PI3Ks (PI3K)", "setting": "[4]", "result": "> 1,000 fold"}, {"measurement": "IC50", "setting": "[5]", "result": 0.7, "unit": "nM"}]}, {"smiles": "CN1CCN(C(=O)c2ccc(NC(=O)Nc3ccc(-c4nc(N5CCOCC5)cc(N5C[C@H]6CC[C@@H](C5)O6)n4)cc3)cc2)CC1", "note": "[Wyeth—Compound 27]", "values": [{"measurement": "HCMV virus production (yield as percentage of untreated cells)", "setting": "[3]", "result": "inhibit virus production"}]}, {"smiles": "Cc1c(C(=O)N2CCOc3ccc(-c4ccc(N)nc4)cc3C2)ccc(S(C)(=O)=O)c1F", "note": "[XL388]", "values": [{"measurement": "IC50", "setting": "[6]", "result": "> 3000", "unit": "nM"}]}, {"smiles": "CO[C@H]1C[C@@H]2CC[C@@H](C)[C@@](O)(O2)C(=O)C(=O)N2CCCC[C@H]2C(=O)O[C@H]([C@H](C)C[C@@H]2CC[C@@H](O)[C@H](OC)C2)CC(=O)[C@H](C)/C=C(\\C)[C@@H](O)[C@@H](OC)C(=O)[C@H](C)C[C@H](C)/C=C/C=C/C=C/1C", "note": "[rapamycin]", "values": [{"measurement": "MCMV replication", "setting": "[7]", "result": "no inhibitory effect"}, {"measurement": "reduction of HCMV yield", "setting": "[8]", "result": "~8", "unit": "fold"}]}]}
